Values of other authors as cited in patent US5008256A, “Salts of ranitidine and complexes of bismuth with carboxylic acids, and pharmaceutical compositions thereof” (Glaxo Group Limited, priority 1988, dated 1991).

Assays:
histamine H2 receptor = details: background; in words
Campylobacter pylori = details: background; in words

SMILES | histamine H2-antagonist activity (histamine H2 receptor) | susceptibility of Campylobacter pylori (Campylobacter pylori)
CNC(=C[N+](=O)[O-])NCCSCc1ccc(CN(C)C)o1 [Ranitidine, N-[2-[[[5-[(dimethylamino)-methyl]-2-furanyl]methyl]thio]ethyl]-N'-methyl-2-nitro-1,1-ethenediamine] | potent histamine H2 -antagonist | –
O=C([O-])CC(O)(CC(=O)[O-])C(=O)[O-].O=C([O-])CC(O)(CC(=O)[O-])C(=O)[O-].[Bi+3].[K+].[K+].[K+] [bismuth subcitrate, tripotassium dicitrato bismuthate] | – | susceptible
